Series [1] concerns human Liver-Chip (primary human hepatocytes). Briefly: Liver-Chip albumin production in top channel effluent (ELISA). As to conditions: for Albumin change in words: Liver-Chip effluent. It is filed as cell-based. For orientation: In an ELISA, binding on a coated surface is turned into a signal by an enzyme label.
Series [2] deals with human Liver-Chip (Kupffer cell activation). Kind of series: IL-6 and TNF-alpha in Liver-Chip effluent (MSD U-PLEX). Conditions: effluent of Liver-Chips from three donors, no inflammatory stimulant.
Procedure: Samples were added to plates manually at a 1:2 dilution. Plates were read for cytokine release on the MESO QuickPlex SQ 120 (Meso Scale Discoveries).
Series [3] has as its system human Liver-Chip (primary human hepatocytes). Briefly: Liver-Chip alanine transaminase (ALT) release in top channel effluent (ELISA). It is filed as cell-based. Conditions: for ALT change in words: Liver-Chip effluent.
The conditions of series [4]: human, total plasma Cmax, cited from earlier work.
The subject of series [5] is 3D spheroid cultures of primary human hepatocytes. As to conditions: cited from earlier work; for Spheroid false negative: Yes/No, also No for drugs not tested in spheroid.
In series [6] the test system is human Liver-Chip. Kind of series: Liver-Chip DILI prediction: minimum toxic concentration and margin of safety (MOS)-like figure.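 As to Chip MOS both donors: Toxic concentration is the lowest across albumin IC50 and ALT and morphology endpoints.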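 As to Chip MOS donor 1: Toxic concentration is the lowest across albumin IC50 and ALT and morphology endpoints.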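 As to Chip MOS donor 2: Toxic concentration is the lowest across albumin IC50 and ALT and morphology endpoints.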 The source says:
Because the fundamental principles of drug action dictate that free (unbound) drug concentrations drive drug effects, we explored an alternative methodology for calculating the MOS-like values by accounting for protein binding using a previously reported approach. Accordingly, we reanalyzed the findings for the 27 drugs in our study by accounting for protein binding.

For series [7] the following is noted: plasma; ref Lau, S.W.J. (65); cited from earlier work.
Series [8] relates to clinical drug-induced liver injury. As to conditions: clinical DILI severity category 1 to 5; cited from earlier work.
Setting [9] is: concentration causing a 50% reduction in albumin production.
Setting [10] is: lowest concentration causing an increase in ALT protein.
Setting [11] is: free IC50 concentration in the assay divided by total concentration of drug in human plasma at Cmax.
The mark [12] stands for this setting: expanded drug list, lowest concentration causing an increase in ALT release.

“Also recorded” adds a separate entry of the source. Read-outs that look alike come from different tables or passages of the source.

For `N[C@@H]1[C@H]2CN(c3nc4c(cc3F)c(=O)c(C(=O)O)cn4-c3ccc(F)cc3F)C[C@@H]12` [Trovafloxacin], in series [1] (setting [9]), the “Albumin IC50 Donor 1” value is 82 multiples of the unbound human Cmax, the “Albumin IC50 Donor 2” value is 78 multiples of the unbound human Cmax and the “Albumin IC50 Donor 3” value was 31 multiples of the unbound human Cmax. For the same molecule, the “IL-6 and TNFα cytokine production after treatment” value in series [2] was “no concentration-dependent change in cytokine levels; also recorded: did not detect any concentration-related change; also recorded: unable to see any concentration-dependent increase in cytokine production”. In series [3] (setting [10]), the “ALT Donor 1” value is reported as 100 multiples of the unbound human Cmax, the “ALT Donor 2” value is given as 100 multiples of the unbound human Cmax and the “ALT Donor 3” value is 30 multiples of the unbound human Cmax.

In the case of `C[C@H]1COc2c(N3CCN(C)CC3)c(F)cc3c(=O)c(C(=O)O)cn1c23` [Levofloxacin], in series [1] (setting [9]), the “Albumin IC50 Donor 1” value is on record as >15 multiples of the unbound human Cmax, the “Albumin IC50 Donor 2” value is >45 multiples of the unbound human Cmax and the “Albumin IC50 Donor 3” value is >45 multiples of the unbound human Cmax. Besides, the “Human Cmax Total” value in series [4] (ref Xu, J. J. et al. (36)) is 15800 nM. Further, the Spheroid false negative result in series [5] is on record as “Yes”. Also, the “Toxicity detection in 3D hepatic spheroids” value in series [5] (threshold 50) is reported as “not detected as toxic drugs in spheroids”. Further, the “Chip MOS both donors” value in series [6] (free IC50 concentration in the assay divided by total concentration of drug in human plasma at Cmax, both donors) is on record as more than 33.7. Further, in series [6] (setting [11]), the “Chip MOS donor 1” value is on record as more than 11.3. The “Chip MOS donor 2” value in series [6] (free IC50 concentration in the assay divided by total concentration of drug in human plasma at Cmax, donor 2) is given as more than 33.7. For the same molecule, in series [6] (not corrected for protein binding, donors one and two), the “Liver-Chip toxicity determination, MOS-like figure against threshold value of 50” value is “not detected”. In series [2], the “IL-6 and TNFα cytokine production after treatment” value was “no concentration-dependent change in cytokine levels; also recorded: did not detect any concentration-related change; also recorded: unable to see any concentration-dependent increase in cytokine production”. In series [3] (Concentration_Day3 = 45, one line per replicate chip), the ALT_levels is 0. Moreover, in series [3] (setting [10]), the “ALT Donor 1” value is >15 multiples of the unbound human Cmax, the “ALT Donor 2” value is listed as >45 multiples of the unbound human Cmax and the “ALT Donor 3” value is >45 multiples of the unbound human Cmax.

Turning to `C=C[C@@H]1C[C@]1(NC(=O)[C@@H]1C[C@@H](Oc2ncc(OC)c3ccc(Cl)cc23)CN1C(=O)[C@@H](NC(=O)OC(C)(C)C)C(C)(C)C)C(=O)NS(=O)(=O)C1CC1` [Asunaprevir], in series [1], the “Albumin change in words” value is “concentration and time-dependent changes”. Further, the “Expected Fraction Unbound in Plasma” value in series [7] is given as 0.012. In addition, the “Human Cmax Total” value in series [4] (ref Schulz, M. & Schmoldt, A. (64)) was 764.4 nM. In addition, the Spheroid false negative result in series [5] is recorded as “No”. Also, the “Chip MOS donor 1” value in series [6] (setting [11]) was 4. Also, in series [8], the “Garside DILI rank” value was 2. The “ALT change in words” value in series [3] is “no elevation of ALT”. Also, the “ALT Donor 1” value in series [3] (setting [12]) is reported as > 1000 unbound human Cmax multiplier.

Turning to `CC[C@H]1OC(=O)[C@H](C)C(=O)[C@H](C)[C@@H](O[C@@H]2O[C@H](C)C[C@H](N(C)C)[C@H]2O)[C@](C)(OC)C[C@@H](C)C(=O)[C@H](C)[C@H]2N(CCCCn3cnc(-c4cccnc4)c3)C(=O)O[C@]12C` [Telithromycin], the “Albumin change in words” value in series [1] is “decrease in albumin”. Further, the “Albumin IC50 Donor 1” value in series [1] (expanded drug list, lowest multiplier causing a 50% reduction in albumin production) was 13 unbound human Cmax multiplier. Moreover, the “Expected Fraction Unbound in Plasma” value in series [7] is reported as 0.4. For the same molecule, in series [4] (reference data from the literature, no reference), the “Human Cmax Total” value was 2790 nM. Further, the Spheroid false negative result in series [5] is reported as “No”. The “Chip MOS donor 1” value in series [6] (setting [11]) is reported as 6. In series [8], the “Garside DILI rank” value was 1. Also, the “ALT change in words” value in series [3] is “concomitant increase”. In addition, the “ALT Donor 1” value in series [3] (setting [12]) is listed as 30 unbound human Cmax multiplier.

(Values after article PMC9727064, “Performance assessment and economic analysis of a human Liver-Chip for predictive toxicology” (Communications Medicine, 2022).)
